For 28 compounds, inhibition and IC50 results are on record in patent publication US5399565A, “Pyrazolidinone CCK and gastrin antagonists and pharmaceutical formulations therof” (priority 1993, dated 1995).

The target of one experiment is T1, brain CCK receptor (Mus musculus, UniProt P56481).
T1 construct: from tissue; host or cells: forebrain membranes of male CF-1 mice
T1 sequence (P56481 1-453): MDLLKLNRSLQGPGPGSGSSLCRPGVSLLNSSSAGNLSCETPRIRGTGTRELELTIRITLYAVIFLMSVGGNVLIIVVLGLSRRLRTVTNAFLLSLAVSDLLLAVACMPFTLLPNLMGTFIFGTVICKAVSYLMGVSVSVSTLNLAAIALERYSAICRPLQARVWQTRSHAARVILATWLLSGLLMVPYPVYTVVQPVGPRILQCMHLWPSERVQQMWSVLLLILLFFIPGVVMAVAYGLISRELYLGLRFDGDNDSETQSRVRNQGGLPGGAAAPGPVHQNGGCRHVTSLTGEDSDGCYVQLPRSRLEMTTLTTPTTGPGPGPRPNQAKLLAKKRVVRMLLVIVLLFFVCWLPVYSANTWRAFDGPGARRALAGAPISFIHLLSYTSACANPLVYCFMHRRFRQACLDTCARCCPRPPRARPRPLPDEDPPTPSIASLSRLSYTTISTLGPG
The experiment in a line: CCK receptor binding, mouse brain membranes (125I-CCK-8 sulfate). The conditions noted are these: for inhibition at 10 µM / inhibition at 1 µM: read-out: Brain Percent Inhibition; for IC50: mouse brain membranes, read-out: Brain IC50. The method, then:
Brain CCK receptor binding was performed using mouse brain membranes according to the method of Chang and Lotti (Proc. Natl. Acad. Sci. 83: 4923-4926, 1986). Male CF-1 mice, 23-25 g were sacrificed by cervical dislocation, the forebrain removed and placed in ice cold 50 mM Tris buffer, pH 7.4. The tissue was homogenized in 100 volumes of the Tris buffer with a Brinkman Polytron or Tekmar Tissumizer and then centrifuged at 40,000 g for 10 min. Pellets were resuspended in Tris buffer, centrifuged as above and then resuspended in 100 volumes of assay buffer, pH 6.5 (20 mM N-2-hydroxyethyl-piperazine-N'-2-ethane sulfonic acid (HEPES), 1 mM ethylene glycol his (2-aminoethyl ether-N,N,N',N'-tetraacetic acid) (EGTA), 5 mM MgCl2, 130 mM NaCl, and 0.25 mg/ml bacitracin). The binding assay consisted of 50 μL of compound (or buffer for total binding), 50 μL of ^125 I-CCK-8 sulfate (20 pM) (Amersham IM- 159), 200 μL of assay buffer and 200 μL of homogenate (80-120 μg protein). The samples were incubated at room temperature (25°) for 2 hours, and they were then filtered through GF/B glass fiber filters (soaked in wash buffer for 2 hours before use) using a 48 well Brandel cell harvester designed for receptor binding. The filters were washed twice with 3 ml of 50 mM Tris buffer, pH 7.4, containing 0.01% BSA and then counted for radioactivity in plastic tubes with a Micromedic 10/600 automatic gamma counter.
Compounds were dissolved in dimethyl sulfoxide (DMSO) at a concentration of 10 mM and then further diluted with assay buffer. The concentration of DMSO in the incubation was 0.1% or less and had no effect on the assay at that level. IC-50 values of displacement curves were determined using 7 concentrations of compound and were calculated using the ALLFIT computer program of DeLean, Munson and Rodbard (Am. J. Physiol. 235: E97-E102, 1978). Non-specific binding was determined as the displacement of the radioligand by 100 nM CCK-8 sulfate.

For experiment [1], the target named is T2, peripheral type CCK receptors in rat pancreas (Rattus norvegicus, UniProt P30551).
T2 construct: Pancreas was obtained from male Sprague-Dawley rats; from tissue; host or cells: pancreas membranes of male Sprague-Dawley rats
T2 sequence (P30551 1-444): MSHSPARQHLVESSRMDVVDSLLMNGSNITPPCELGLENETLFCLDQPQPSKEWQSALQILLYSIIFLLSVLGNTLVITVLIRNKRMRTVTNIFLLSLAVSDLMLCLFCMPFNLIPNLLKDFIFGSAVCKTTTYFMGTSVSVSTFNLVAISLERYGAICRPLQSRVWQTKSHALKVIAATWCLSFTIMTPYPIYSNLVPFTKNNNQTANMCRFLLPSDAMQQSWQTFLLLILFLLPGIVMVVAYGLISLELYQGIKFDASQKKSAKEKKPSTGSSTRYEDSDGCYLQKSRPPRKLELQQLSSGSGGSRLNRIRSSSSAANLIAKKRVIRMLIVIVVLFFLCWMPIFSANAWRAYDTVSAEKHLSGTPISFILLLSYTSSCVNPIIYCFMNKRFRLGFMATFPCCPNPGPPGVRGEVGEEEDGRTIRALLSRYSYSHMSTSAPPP
Nature of the experiment: Binding to peripheral type CCK receptors in rat pancreas (3H-L-364,718). The conditions noted are these: for inhibition at 10 µM: read-out: Pancreas Percent Inhibition; for IC50: rat pancreas. The protocol: Binding to peripheral type CCK receptors in rat pancreas was done according to the method of Chang et al. (Mol. Pharmacol. 30: 212-217, 1986) using ^3 H-L364, 718. Pancreas was obtained from male Sprague-Dawley rats, 150-200 g, after decapitation, and dissected free from adipose and connective tissue. The tissue was homogenized in 30 volumes of 50 mM Tris buffer, pH 7.4 and centrifuged at 40,000 g for 10 min. The tissue pellet was washed by resuspension and centrifugation as described above. The final pellet was suspended in 500 volumes of assay buffer (50 mM Tris buffer, pH 7.4, 5 mM MgCl2, 0.14 mg/ml bacitracin, and 5 mM dithiothreitol) to give a protein concentration of 30-60 μg/200 μl . Reagent volumes for the assay were the same as those used for CCK binding to brain membranes. Tritium labeled L-364,718 (Dupont NEN, NET-971) was used as the ligand at a concentration of 0.4-0.6 nM. The samples were incubated 1 hour at room temperature and then filtered as described for the CCK-brain receptor. Scintillation cocktail was added to the filters which were counted for radioactivity using a Micromedic Taurus automatic liquid scintillation counter.
Compound samples were prepared and IC-50 values were determined as described for the CCK-brain experiments. Non-specific binding was that amount left bound to the filters after adding 100 nM L-364,718.

For `CN(C(=O)N1NC(=O)[C@@H](c2ccccc2)[C@@H]1c1ccccc1)c1ccc(Cl)cc1` (relative stereo) [Example 19], the inhibition at 10 µM at brain CCK receptor worked out at 68%; in experiment [1], 36%.
The corresponding values for `O=C1NN(C(=O)NCc2ccccc2)[C@@H](c2ccccc2)[C@@H]1c1ccccc1` (relative stereo) [Example 96] are 42% and 13%.
On to `CN(C)c1ccc(C2C(c3ccccc3)C(=O)NN2C(=O)Nc2ccc(C(F)(F)F)cc2)cc1` (centres unmarked) [Example 113], for which the inhibition at 1 µM at brain CCK receptor worked out at 25%. Moreover, in experiment [1], the inhibition at 10 µM was 21%.
Consider `O=C1NN(C(=O)Nc2ccc(Br)c(C(F)(F)F)c2)[C@H](c2ccccc2)[C@H]1c1ccccc1` (relative stereo) [Example 45], for which the IC50 at brain CCK receptor was determined as 22 nM; in experiment [1], 160 nM.
`CCCCC1C(c2ccccc2)C(=O)NN1C(=O)Nc1cccc(C(F)(F)F)c1` (centres unmarked) [Example 70]: on brain CCK receptor, the inhibition at 1 µM was 13%. In experiment [1], the inhibition at 10 µM was found to be 36%.
As to `C[C@@H](NC(=O)N1NC(=O)C(c2ccccc2)C1c1ccccc1)c1cccc2ccccc12` (some centres unmarked) [Example 104], on brain CCK receptor, the IC50 is 900 nM. In experiment [1], the inhibition at 10 µM is 47%.
Compound `O=C1NN(C(=S)Nc2cnc3ccccc3c2)[C@@H](c2ccccc2)[C@@H]1c1ccccc1` (relative stereo) [Example 137] showed an IC50 in experiment [1] of 32 nM.
In the case of `O=C1NN(C(=O)Nc2ccc(Br)cc2)C(Cc2ccccc2)C1c1ccccc1` (centres unmarked) [Example 72], the inhibition at 10 µM at brain CCK receptor stood at 88%; in experiment [1], 22%.
Consider `CC(C)Oc1ccc(NC(=O)N2NC(=O)[C@@H](c3ccccc3)[C@@H]2c2ccccc2)cc1` (relative stereo) [Example 35], for which the IC50 at brain CCK receptor came to 390 nM. The inhibition at 10 µM in experiment [1] turned out to be 48%.
The corresponding values for `CCc1ccc(NC(=O)N2NC(=O)[C@@H](c3ccccc3)[C@@H]2c2ccccc2)cc1` (relative stereo) [Example 26] are 75 nM and 47%.
The corresponding values for `O=C1NN(C(=O)Nc2ccc(OCCc3ccccc3)cc2)[C@@H](c2ccccc2)[C@@H]1c1ccccc1` (relative stereo) [Example 36] are 450 nM and 33%.
Turning to `O=C1NN(C(=O)NCc2ccccc2Cl)[C@@H](c2ccccc2)[C@@H]1c1ccccc1` (relative stereo) [Example 98], the inhibition at 10 µM was 74% on brain CCK receptor and 33% in experiment [1].
Turning to `O=C1NN(C(=O)Nc2ccc(Oc3ccccc3)cc2)[C@@H](c2ccccc2)[C@@H]1c1ccccc1` (relative stereo) [Example 37], the inhibition at 1 µM on brain CCK receptor worked out at 82%. Besides, the inhibition at 10 µM in experiment [1] worked out at 75%.
Consider `O=C1NN(C(=O)NC2CCc3ccccc3C2)[C@@H](c2ccccc2)[C@@H]1c1ccccc1` (relative stereo) [Example 4, 1-[(2-[1,2,3,4-Tetrahydronaphthyl])aminocarbonyl]-4,5-diphenyl-3-pyrazolidinone], for which the IC50 on brain CCK receptor stood at 390 nM. In addition, the inhibition at 10 µM in experiment [1] was found to be 78%.
Turning to `C[C@H](NC(=O)N1NC(=O)C(c2ccccc2)C1c1ccccc1)c1ccccc1` (some centres unmarked) [Example 101], the IC50 on brain CCK receptor is 1300 nM. Besides, in experiment [1], the inhibition at 10 µM was determined as 7%.
As for `O=C1NN(C(=O)Nc2ccc3ccccc3c2)[C@@H](c2ccccc2)[C@@H]1c1ccccc1` (relative stereo) [Example 91], the inhibition at 10 µM in experiment [1] was 94%.
With `O=C1NN(C(=S)Nc2c(F)c(F)c(F)c(F)c2F)[C@H](c2ccccc2)[C@H]1c1ccccc1` (relative stereo) [Example 65], the inhibition at 10 µM on brain CCK receptor turned out to be 50%; in experiment [1], 37%.
For the compound `O=C1NN(C(=O)Nc2ccc(C3CCCCC3)cc2)[C@@H](c2ccccc2)[C@@H]1c1ccccc1` (relative stereo) [Example 31], the inhibition at 1 µM at brain CCK receptor was determined as 54%. Also, the inhibition at 10 µM in experiment [1] worked out at 71%.
Take `CN1C(=O)[C@H](c2ccccc2)[C@@H](c2ccccc2)N1C(=O)Nc1ccc(C(F)(F)F)cc1` (relative stereo) [Example 67]: the inhibition at 10 µM at brain CCK receptor amounted to 46%.
For `O=C1NN(C(=S)NCc2ccc(Cl)c(Cl)c2)[C@@H](c2ccccc2)[C@@H]1c1ccccc1` (relative stereo) [Example 138], the IC50 in experiment [1] came out at 69 nM.
The same measure, in the same setting: the value for `O=C1NN(C(=S)Nc2ccc(Cl)c(C(F)(F)F)c2)[C@@H](c2ccccc2)[C@@H]1c1ccccc1` (single isomer, unassigned) [Example 143, (-)-trans-1-[(4-Chloro-3-trifluoromethylphenyl)-aminothiocarbonyl]-4,5-diphenyl-3-pyrazolidinone] was 810 nM.
With `CCCCNC(=O)N1NC(=O)[C@H](c2ccccc2)[C@H]1c1ccccc1` (relative stereo) [Example 94], the inhibition at 10 µM at brain CCK receptor was determined as 50%.
Still for that read-out and setting: the value for `COC1=NN(C(=O)Nc2ccc(C(F)(F)F)cc2)[C@@H](c2ccccc2)[C@@H]1c1ccccc1` (relative stereo) [Example 13, 1-[(4-Trifluoromethylphenyl)aminocarbonyl]-3-methoxy-4,5diphenyl-2-pyrazoline] was 67%.
For the compound `O=C1NN(C(=O)Nc2ccc(Br)cc2)[C@@H](c2ccccc2)[C@@H]1c1ccccc1` (single isomer, unassigned) [Example 140, (-)-trans-1-[(4-Bromophenyl)aminocarbonyl]-4,5-diphenyl-3-pyrazolidinone], at brain CCK receptor, the IC50 turned out to be 370 nM.
For the compound `CN(Cc1ccccc1)C(=O)N1NC(=O)[C@@H](c2ccccc2)[C@@H]1c1ccccc1` (relative stereo) [Example 97], the inhibition at 10 µM on brain CCK receptor is 42%.
For `O=C(Nc1cccc(C(F)(F)F)c1)N1N[C@@H](c2ccccc2)[C@H](c2ccccc2)C1=O` (relative stereo) [Example 82], the inhibition at 10 µM on brain CCK receptor amounted to 23%.
With `O=C1NN(c2nc3c(Cl)c(Cl)ccc3s2)[C@@H](c2ccccc2)[C@@H]1c1ccccc1` (relative stereo) [Example 86], the inhibition at 10 µM in experiment [1] turned out to be 58%.
In turn, `O=C1NN(C(=S)Nc2ccc(Cl)c(C(F)(F)F)c2)[C@@H](c2ccccc2)[C@@H]1c1ccccc1` (single isomer, unassigned) [Example 142, (+)-trans-1-[(4-Chloro-3-trifluoromethylphenyl)-aminothiocarbonyl]-4,5-diphenyl-3-pyrazolidinone] came in with an IC50 in experiment [1] of 17 nM.

As a reminder, the inhibition is the relative decrease from the control value, in per cent. By IC50 is commonly meant the concentration needed to halve the response being measured.
